Results: patent US9145393B2, “Arylpyridinone ITK inhibitors for treating inflammation and cancer” (Confluence Life Sciences, Inc., priority 2014, dated 2015)
pIC50: −log10 of the molar value. Structures can show the parent of a compound that is named as a salt.

Legend:
ITK = target: T1, ITK (Homo sapiens, UniProt Q08881); assay: ITK inhibitor binding potency (LanthaScreen TR-FRET competitive binding assay); conditions: pre-incubation condition not stated; read-out: ITK Inhibition IC50
T1 sequence (Q08881 1-620): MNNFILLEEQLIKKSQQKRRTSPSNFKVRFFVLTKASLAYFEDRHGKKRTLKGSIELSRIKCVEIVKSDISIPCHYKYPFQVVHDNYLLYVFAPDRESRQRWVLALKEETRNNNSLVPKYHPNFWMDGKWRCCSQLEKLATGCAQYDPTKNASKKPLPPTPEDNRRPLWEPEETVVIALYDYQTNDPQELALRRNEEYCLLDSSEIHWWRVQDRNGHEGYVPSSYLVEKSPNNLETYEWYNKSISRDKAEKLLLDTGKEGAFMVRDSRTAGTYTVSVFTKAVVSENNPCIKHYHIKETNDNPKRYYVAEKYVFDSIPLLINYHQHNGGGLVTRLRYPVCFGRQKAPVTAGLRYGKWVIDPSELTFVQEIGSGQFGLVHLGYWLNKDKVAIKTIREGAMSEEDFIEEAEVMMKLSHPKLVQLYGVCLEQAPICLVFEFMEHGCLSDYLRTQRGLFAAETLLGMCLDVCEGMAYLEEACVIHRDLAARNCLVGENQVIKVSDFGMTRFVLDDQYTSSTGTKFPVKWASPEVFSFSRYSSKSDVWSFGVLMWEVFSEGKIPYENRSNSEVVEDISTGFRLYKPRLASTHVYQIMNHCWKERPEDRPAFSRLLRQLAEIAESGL
From the text: The ability of candidate compounds to interact with ITK is quantitated by a competitive binding assay using the LanthaScreen technology developed by Life Technologies. This assay is based on the binding of a proprietary, Alexa Fluor® 647-labeled, ATP-competitive kinase inhibitor (kinase tracer-236) to the ITK expression construct in the presence of a Europium-conjugated antibody, resulting in a FRET (fluorescence resonance energy transfer) signal. Displacement of the kinase tracer by compound results in a lower emission ratio upon excitation of the Europium chelate. Candidate compounds are designed as potential irreversible inhibitors of ITK, capable of ligating to an active site cysteine residue resulting in time dependent covalent binding. The time dependent nature of irreversible inhibition is investigated by performing the binding assay with and without a pre-incubation of compound and ITK. […] The inhibitory potency of candidate compounds is measured in 20 mM HEPES pH 7.5, 10 mM MgCl2, 0.01% BSA, 0.0005% Tween-20, and 2% DMSO in the presence of 10 nM ITK, 2 nM Eu-anti-GST antibody, and 50 nM kinase tracer-236 using a 384-well plate format. Background signal is defined in the absence of ITK and uninhibited signal is defined in the presence of vehicle (2% DMSO) alone. Compounds were evaluated in an 11-point dose-response ranging from 20 uM to 0.34 nM. The binding assays are performed under two preincubation Conditions to evaluate time dependence of inhibition. For the pre-incubation assay, ITK and Eu-anti-GST antibody are pre-incubated with compound or vehicle for two hours prior to the addition of kinase tracer. The non-preincubated assay is run under Conditions where ITK and Eu-anti-GST antibody are added to a mixture of compound and kinase tracer. IC50 values of compounds are determined using a 4 parameter logistical fit of emission ratio as a function of the concentration of compound.

[1] = test system: ITK mediated IL-2 release in Jurkat cells; assay: ITK IL-2 release assay in CD3/CD28-stimulated Jurkat cells; assay type: cell-based; conditions: Homo sapiens, CD3/CD28 Dynabeads stimulation, overnight, read-out: IL-2 Production Inhibition IC50
Description: This assay was based on the ability of a compound to inhibit ITK mediated IL-2 release. Jurkat cells were placed in wells of a 96-well plate at 500,000 per well in 120 μL medium (same as above). Compounds were added as 15 μL per well of 10× working stock solutions in medium with 1% DMSO (or medium with 1% DMSO for Controls) and placed in a 37° C. incubator for 2 hours. Stimulation used CD3/CD28 Dynabeads to activate the T cell receptor and mimic antigen-presenting cells. Beads were added at a ratio of 1 bead per cell, in 15 μL medium (or medium alone for unstimulated Control). After overnight incubation, the plates were centrifuged at 290×g for 5 min, then 100 μL per well of supernatant medium removed for IL-2 cytokine assay. To determine cell viability, to the remaining well Contents 50 μL of CellTiter-Glo reagent was added and luminescence determined. The IL-2 cytokine assay utilized an electochemiluminescence-based ELISA.

| pIC50 (ITK) | pIC50 [1] | Compound |
| --- | --- | --- |
| ≥ 6.00 | – | O=C(CCl)N1CC(Nc2cc(-c3ccncc3)c[nH]c2=O)C1 [Example 4, 5-((1-(2-Chloroacetyl)azetidin-3-yl)amino)-[3,4′-bipyridin]-6(1H)-one] |
| ≥ 6.00 | – | C=CC(=O)N1CC(Nc2cc(-c3ccnc(C)c3)c[nH]c2=O)C1 [Example 7, 5-((1-acryloylazetidin-3-yl)amino)-2′-methyl-[3,4′-bipyridin]-6(1H)-one] |
| ≥ 6.00 | ≥ 6.00 | C=CC(=O)N1CC(Nc2cc(-c3ccnc(NC)c3)c[nH]c2=O)C1 [Example 9, 5-((1-acryloylazetidin-3-yl)amino)-2′-(methylamino)-[3,4′-bipyridin]-6(1H)-one] |
| ≥ 6.00 | – | C=CC(=O)N1CC(Nc2cc(-c3cncc(OC)n3)c[nH]c2=O)C1 [Example 8, 3-((1-acryloylazetidin-3-yl)amino)-5-(6-methoxypyrazin-2-yl) pyridin-2(1H)-one] |
| ≥ 6.00 | – | C=CC(=O)N1CC(Nc2cc(-c3ccncc3)c[nH]c2=O)C1 [Example 5, 5-((1-Acryloylazetidin-3-yl)amino)-[3,4′-bipyridin]-6(1H)-one] |
| < 6.00 | – | C/C=C/C(=O)N1CC(Nc2cc(-c3ccncc3)c[nH]c2=O)C1 [Example 6, (E)-5-((1-(But-2-enoyl)azetidin-3-yl)amino)-[3,4′-bipyridin]-6(1H)-one] |
| ≥ 6.00 | – | C=CC(=O)N1CC(Nc2cc(-c3ccnc(C(=O)Nc4ccc(C(C)C)c(C)c4)c3)c[nH]c2=O)C1 [Example 16, 5-((1-Acryloylazetidin-3-yl)amino)-N-(4-isopropyl-3-methylphenyl)-6-oxo-1,6-dihydro-[3,4′-bipyridine]-2′-carboxamide hydrochloride] |
| < 6.00 | – | CNc1cc(-c2c[nH]c(=O)c(NC3CN(C(=O)/C=C/c4ccccc4)C3)c2)ccn1 [Example 14, (E)-5-((1-Cinnamoylazetidin-3-yl)amino)-2′-(methylamino)-[3,4′-bipyridin]-6(1H)-one] |
| ≥ 6.00 | – | CNC/C=C/C(=O)N1CC(Nc2cc(-c3ccncc3)c[nH]c2=O)C1 [Example 13, (E)-5-((1-(4-(methylamino)but-2-enoyl)azetidin-3-yl)amino)-[3,4′-bipyridin]-6(1H)-one] |
| < 6.00 | – | CNC(=O)/C=C/C(=O)N1CC(Nc2cc(-c3ccncc3)c[nH]c2=O)C1 [Example 12, (E)-N-methyl-4-oxo-4-(3-((6-oxo-1,6-dihydro-[3,4′-bipyridin]-5-yl)amino)azetidin-l-yl)but-2-enamide] |
| < 6.00 | – | C=CC(=O)N1CCC[C@@H](Nc2cc(-c3ccncc3)c[nH]c2=O)C1 [Example 2, (R)-5-((1-Acryloylpiperidin-3-yl)amino)-[3,4′-bipyridin]-6(1H)-one] |
| ≥ 6.00 | – | CNc1cc(-c2c[nH]c(=O)c(NC3CN(C(=O)/C=C/CCOc4ccccc4)C3)c2)ccn1 [Example 20, (E)-2′-(Methylamino)-5-((1-(5-phenoxypent-2-enoyl)azetidin-3-yl)amino)-[3,4′-bipyridin]-6(1H)-one] |
| ≥ 6.00 | – | CC/C=C/C(=O)N1CC(Nc2cc(-c3ccnc(NC)c3)c[nH]c2=O)C1 [Example 18, (E)-2′-(Methylamino)-5-((1-(pent-2-enoyl)azetidin-3-yl)amino)-[3,4′-bipyridin]-6(1H)-one] |
| ≥ 6.00 | – | CNc1cc(-c2c[nH]c(=O)c(NC3CN(C(=O)/C=C/CN(C)C)C3)c2)ccn1 [Example 19, (E)-5-((1-(4-(Dimethylamino)but-2-enoyl)azetidin-3-yl)amino)-2′-(methylamino)-[3,4′-bipyridin]-6(1H)-one] |
| < 6.00 | – | C=CC(=O)N1CC[C@@H](Nc2cc(-c3ccncc3)c[nH]c2=O)C1 [Example 3, (R)-5-((1-Acryloylpyrrolidin-3-yl)amino)-[3,4′-bipyridin]-6(1H)-one] |
| < 6.00 | – | Cc1cc(NC(=O)c2cc(-c3c[nH]c(=O)c(NC4CN(C(=O)CCl)C4)c3)ccn2)ccc1C(C)C [Example 17, 5-((1-(2-Chloroacetyl)azetidin-3-yl)amino)-N-(4-isopropyl-3-methylphenyl)-6-oxo-1,6-dihydro-[3,4′-bipyridine]-2′-carboxamide formate] |
| < 6.00 | – | CNc1cc(-c2c[nH]c(=O)c(NC3CN(C(=O)/C=C/Cc4ccccc4)C3)c2)ccn1 [Example 15, (E)-2′-(Methylamino)-5-((1-(4-phenylbut-2-enoyl)azetidin-3-yl)amino)-[3,4′-bipyridin]-6(1H)-one] |
| ≥ 6.00 | – | O=C(CCl)N1CCC[C@@H](Nc2cc(-c3ccncc3)c[nH]c2=O)C1 [Example 1, (R)-5-((1-(2-Chloroacetyl)piperidin-3-yl)amino)-[3,4′-bipyridin]-6(1H)-one] |
| ≥ 6.00 | ≥ 6.00 | C=CC(=O)N1CC(Nc2cc(-c3cncc(NC)n3)c[nH]c2=O)C1 [Example 11, 3-((1-acryloylazetidin-3-yl)amino)-5-(6-(methylamino)pyrazin-2-yl) pyridin-2(1H)-one] |
| ≥ 6.00 | ≥ 6.00 | C=CC(=O)N1CC(Nc2cc(-c3ccnc(NC)n3)c[nH]c2=O)C1 [Example 10, 3-((1-acryloylazetidin-3-yl)amino)-5-(2-(methylamino)pyrimidin-4-yl)pyridin-2(1H)-one] |
